Assay results from patent US20240150322A1, “CDK9 Inhibitors” (Biolexis Therapeutics, Inc., priority 2022, published 2024).

Experiments:
[1] = test system: RWPE-1 Normal Prostate Cells; assay: CellTiter-Glo 2D cell viability assay in normal prostate cells; type: cell-based; conditions: Homo sapiens; RWPE-1 normal prostate cells, 72 hours
Description: (§1) Multiplexing the LDH-Glo Cytotoxicity Assay and CellTiter-Glo 2D Cell Viability Assay. […] Change in toxicity was measured using the LDH-Glo Cytotoxicity Assay by combining 50 μL diluted samples with 50 μL LDH Detection Reagent and recording luminescence after 1 hour incubation. After samples were removed for LDH measurement, an equal volume of CellTiter Glo 2D Reagent was added to the remaining cell suspension and luminescence was recorded after 30-minute incubation period.

[2] = test system: RWPE-1 Normal Prostate Cells; assay: LDH-Glo cytotoxicity assay in normal prostate cells; type: cell-based; conditions: Homo sapiens, 72 hours
Description: as §1

[3] = test system: C4-2; assay: 2D CellTiter-Glo cell viability assay; type: cell-based, human
Description: CellTiter-Glo® 2.0 Luminescent cell viability assay reagent was purchased from Promega and 22Rv1, LASCPC-01, C4-2, C4-2B and NCI-H660, DU-145, PC-3 and LNCap cell lines were obtained from ATCC and a clinical core facility at Huntsman Cancer Institute. […] The results of cell viability were obtained and IC50 values were calculated (see Table 5, below) showing sub-micromolar cell killing of these prostate cancer cells.

[4] = test system: CDK9 downstream targets in 22Rv1 and LASCPC-01; assay: Western blot analysis of nuclear extract; type: cell-based
Description: Cytoplasmic and nuclear extracts from these cells were separated using NE-PER Nuclear and Cytoplasmic Extraction Kit (ThermoFisher). […] Relative protein expression of CDK9, N-Myc and other downstream signaling was quantified by GraphPad Prism 8 and ImageJ Software RT-PCR Gene.
Then cells were harvested with PBS and fixed with ice-cold 70% ethanol at −20° C. overnight. The cells were then washed with ice-cold PBS 2× and then re-suspended in DAPI staining buffer and incubated in the dark for 30 minutes. The cells were analyzed using BD Fortessa flow cytometer and cell cycle distribution was analyzed using FlowJo and GraphPad Prism 8 Software.

[5] = test system: pCDK9, pSer2, N-MYC, C-MYC and MCL-1; assay: Target modulation in prostate cancer patient samples; type: cell-based; conditions: newly diagnosed and resistant prostate cancer patient samples
[6] = target: CDK4/cyclinD (Homo sapiens, UniProt P11802); assay: CDK family kinase profiling, radioisotope-based assay (33P); type: biochemical; conditions: read-out: 10-dose IC50
Sequence of CDK4/cyclinD (P11802 whole entry): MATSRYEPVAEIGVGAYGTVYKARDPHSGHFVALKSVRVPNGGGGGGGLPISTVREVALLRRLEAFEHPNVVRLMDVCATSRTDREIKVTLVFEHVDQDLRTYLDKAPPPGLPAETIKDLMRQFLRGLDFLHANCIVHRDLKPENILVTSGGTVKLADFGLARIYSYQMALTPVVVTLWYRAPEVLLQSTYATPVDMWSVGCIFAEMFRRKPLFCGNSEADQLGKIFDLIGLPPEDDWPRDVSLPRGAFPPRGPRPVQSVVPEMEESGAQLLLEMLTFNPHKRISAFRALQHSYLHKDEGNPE
Sequence of CDK4/cyclinD (P24385 whole entry partner): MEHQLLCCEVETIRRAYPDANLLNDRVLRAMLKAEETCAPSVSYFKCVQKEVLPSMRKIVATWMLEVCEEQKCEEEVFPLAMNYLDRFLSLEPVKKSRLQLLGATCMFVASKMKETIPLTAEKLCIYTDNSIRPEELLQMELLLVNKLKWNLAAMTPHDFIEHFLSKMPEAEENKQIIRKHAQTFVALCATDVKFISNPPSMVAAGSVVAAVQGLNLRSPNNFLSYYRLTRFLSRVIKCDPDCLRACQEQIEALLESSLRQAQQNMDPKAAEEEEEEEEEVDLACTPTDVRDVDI
Description: (§2) CDKs family kinases profiling assays were performed with DiscoveRx Matrix of Kds KINOMEscan (KdELECT) and Reaction Biology using miniaturized radioisotope-based assay platform (^33P). IC50 value estimated based on the best curve fitting available.

[7] = target: T1, CDK5/P21 (Homo sapiens, UniProt Q00535); assay: as above; type: biochemical; conditions: read-out: 10-dose IC50
T1 construct: purchased Reaction Biology
T1 sequence (Q00535 whole entry): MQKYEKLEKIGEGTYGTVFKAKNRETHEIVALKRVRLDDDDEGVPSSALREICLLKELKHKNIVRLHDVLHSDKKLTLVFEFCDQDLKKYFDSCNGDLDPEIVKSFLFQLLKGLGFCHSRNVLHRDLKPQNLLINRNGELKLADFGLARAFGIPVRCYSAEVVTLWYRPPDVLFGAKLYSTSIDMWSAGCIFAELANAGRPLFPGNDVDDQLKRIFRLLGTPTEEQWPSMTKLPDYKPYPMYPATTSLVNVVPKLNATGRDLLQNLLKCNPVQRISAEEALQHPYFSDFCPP
T1 sequence (Q15078 99-307 partner limits assumed): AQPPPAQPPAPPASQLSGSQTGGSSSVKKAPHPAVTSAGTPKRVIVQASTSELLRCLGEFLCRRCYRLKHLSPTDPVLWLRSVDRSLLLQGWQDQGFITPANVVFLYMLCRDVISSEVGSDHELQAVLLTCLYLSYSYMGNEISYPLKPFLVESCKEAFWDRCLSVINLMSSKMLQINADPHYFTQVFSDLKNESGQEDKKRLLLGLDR
Description: as §2

[8] = target: T2, CDK7/cyclinH (Homo sapiens, UniProt P50613); assay: as above; type: biochemical; conditions: read-out: 10-dose IC50
T2 construct: purchased Reaction Biology
T2 sequence (P50613 whole entry): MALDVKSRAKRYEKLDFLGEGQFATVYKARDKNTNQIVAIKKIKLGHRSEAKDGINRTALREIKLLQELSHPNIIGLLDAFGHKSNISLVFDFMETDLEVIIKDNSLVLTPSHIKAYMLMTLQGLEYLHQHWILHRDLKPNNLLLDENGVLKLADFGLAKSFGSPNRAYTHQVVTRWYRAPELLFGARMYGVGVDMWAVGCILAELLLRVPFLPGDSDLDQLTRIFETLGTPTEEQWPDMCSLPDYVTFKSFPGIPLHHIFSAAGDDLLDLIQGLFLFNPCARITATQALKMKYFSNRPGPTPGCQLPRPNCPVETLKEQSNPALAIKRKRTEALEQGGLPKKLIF
T2 sequence (P51946 whole entry partner): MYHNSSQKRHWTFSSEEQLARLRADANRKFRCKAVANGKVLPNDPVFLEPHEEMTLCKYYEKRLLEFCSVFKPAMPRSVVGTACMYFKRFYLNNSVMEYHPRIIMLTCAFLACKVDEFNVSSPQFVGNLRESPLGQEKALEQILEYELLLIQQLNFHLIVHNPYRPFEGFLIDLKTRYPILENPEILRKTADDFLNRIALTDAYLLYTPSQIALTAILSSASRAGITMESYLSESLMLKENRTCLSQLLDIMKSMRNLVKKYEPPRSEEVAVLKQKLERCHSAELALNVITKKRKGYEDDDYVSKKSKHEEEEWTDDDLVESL
T2 sequence (P51948 whole entry partner): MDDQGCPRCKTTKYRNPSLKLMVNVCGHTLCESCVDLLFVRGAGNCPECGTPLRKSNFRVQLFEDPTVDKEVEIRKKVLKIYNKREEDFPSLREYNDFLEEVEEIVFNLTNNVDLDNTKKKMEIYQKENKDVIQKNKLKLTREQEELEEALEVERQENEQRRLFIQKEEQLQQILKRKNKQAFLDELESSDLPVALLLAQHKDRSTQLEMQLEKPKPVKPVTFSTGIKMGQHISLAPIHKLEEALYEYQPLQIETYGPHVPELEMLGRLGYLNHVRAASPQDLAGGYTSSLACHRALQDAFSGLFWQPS
Description: as §2

[9] = target: T3, CDK9/cyclinT (Homo sapiens, UniProt P50750); assay: as above; type: biochemical; conditions: cell-free, read-out: IC50 against CDK9
T3 construct: purchased Reaction Biology
T3 sequence (P50750 whole entry): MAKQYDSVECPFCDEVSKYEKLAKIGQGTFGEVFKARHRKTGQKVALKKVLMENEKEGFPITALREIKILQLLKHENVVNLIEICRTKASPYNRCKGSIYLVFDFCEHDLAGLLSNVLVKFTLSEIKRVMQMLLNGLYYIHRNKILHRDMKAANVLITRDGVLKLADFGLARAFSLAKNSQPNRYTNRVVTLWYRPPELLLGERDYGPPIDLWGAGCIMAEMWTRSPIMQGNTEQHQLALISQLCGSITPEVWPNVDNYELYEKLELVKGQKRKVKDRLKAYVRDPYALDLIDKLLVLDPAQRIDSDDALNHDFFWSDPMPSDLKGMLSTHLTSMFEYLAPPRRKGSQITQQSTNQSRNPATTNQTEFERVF
T3 sequence (O60563 whole entry partner): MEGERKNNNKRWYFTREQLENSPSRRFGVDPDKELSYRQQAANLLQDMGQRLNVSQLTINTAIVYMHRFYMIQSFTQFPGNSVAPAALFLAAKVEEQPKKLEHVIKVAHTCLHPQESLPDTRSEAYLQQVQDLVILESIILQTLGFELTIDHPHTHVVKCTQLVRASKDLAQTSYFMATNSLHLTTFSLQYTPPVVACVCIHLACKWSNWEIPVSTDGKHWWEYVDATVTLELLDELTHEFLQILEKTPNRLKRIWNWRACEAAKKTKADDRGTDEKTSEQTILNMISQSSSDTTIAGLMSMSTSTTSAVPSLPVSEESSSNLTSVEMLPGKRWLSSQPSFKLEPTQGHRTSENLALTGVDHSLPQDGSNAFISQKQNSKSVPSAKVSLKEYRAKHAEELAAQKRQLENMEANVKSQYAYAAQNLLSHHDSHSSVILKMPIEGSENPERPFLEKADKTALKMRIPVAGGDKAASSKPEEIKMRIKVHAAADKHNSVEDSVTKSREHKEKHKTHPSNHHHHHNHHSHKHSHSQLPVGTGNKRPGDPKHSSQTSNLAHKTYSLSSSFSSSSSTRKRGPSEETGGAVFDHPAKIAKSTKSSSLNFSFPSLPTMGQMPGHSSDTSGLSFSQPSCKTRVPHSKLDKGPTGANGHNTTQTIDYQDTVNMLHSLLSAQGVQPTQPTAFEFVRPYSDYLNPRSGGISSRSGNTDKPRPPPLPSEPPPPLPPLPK
Description: as §2

[10] = target: PCTK1 (Homo sapiens, UniProt Q00536); assay: scanMAX panel and Kd follow-up; type: binding
Sequence of PCTK1 (Q00536 whole entry): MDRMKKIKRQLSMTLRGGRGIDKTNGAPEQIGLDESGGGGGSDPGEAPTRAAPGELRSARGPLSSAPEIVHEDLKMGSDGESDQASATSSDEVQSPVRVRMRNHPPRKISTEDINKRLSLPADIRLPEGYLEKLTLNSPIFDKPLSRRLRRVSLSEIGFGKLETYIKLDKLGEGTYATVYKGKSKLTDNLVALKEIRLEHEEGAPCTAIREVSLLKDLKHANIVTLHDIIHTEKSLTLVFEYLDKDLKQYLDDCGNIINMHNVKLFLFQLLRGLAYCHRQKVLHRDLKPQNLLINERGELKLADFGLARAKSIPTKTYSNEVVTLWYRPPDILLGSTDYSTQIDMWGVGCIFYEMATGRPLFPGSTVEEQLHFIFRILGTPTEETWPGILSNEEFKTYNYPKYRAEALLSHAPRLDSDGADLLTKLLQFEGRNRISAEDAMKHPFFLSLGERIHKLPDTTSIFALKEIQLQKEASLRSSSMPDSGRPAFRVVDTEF

[11] = test system: 22RV1 induced neuroendocrine prostate cancer (NEPC) CDX; assay: In vivo tumor efficacy study, 22Rv1 NEPC CDX
Description: 22Rv1 cells were cultured in RPMI supplemented with 10% FBS and 1% P/S, in a humidified incubator at 37° C. and 5% CO2. Nu/nu Balb/c homozygous mice were procured through Jackson laboratory (Strain 002019). Mice were fed Teklad irradiated (sterilized) mouse diet and bedded with Teklad irradiated (sterilized) corncob bedding from Envigo (Indianapolis, IN). Mice were housed in Optimice carousel sterile quarters with filtered air supply in disposable cages from Animal Care Systems, Inc. (Centennial, CO). A 12-hour light/12-hour dark light cycle is observed, with animal handling only taking place during the light cycle.
22Rv1 Implantation: On the day of implantation, cells were trypsinized and allowed to detach from flasks. Trypsin was then neutralized with complete media and cells were spun at 300×g. Media was aspirated and cells were re-suspended in 50:50 Cultrex RPMI (no supplementation) at a concentration of 5×10^7 cells/mL. A volume of 100 μL was injected into the right hind flank of each animal (a total of 5×10^6 cells per mouse). Cells were checked for viability using trypan blue exclusion and found to be >98% viable.
• All mice were dosed orally, and the observation duration was 21 days […]
Tumor volumes: Tumor volumes were measured by digital caliper, and volume was calculated using the formula [Width^2×Length]/2. All tumor volume measurements are recorded. […]

[12] = test system: LASCPC-01 induced neuroendocrine prostate cancer (NEPC) CDX; assay: In vivo tumor efficacy study 2, LASCPC-01 NEPC CDX; parameters: species or system Nu/Nu (Balb/c background) mice
Description: Change in animal weight during a study is an additional indicator of tolerability. All animal weights are recorded. Tumor volumes were measured by digital caliper and volume was calculated using the formula [Width^2×Length]/2. All tumor volume measurements are recorded. […] Dose dependent tumor growth inhibition (TGI) was evident by observation.
50 and 80 mg/kg groups had mice drop from study starting on day 5.

[13] = target: CDK2/cyclinA (Homo sapiens, UniProt P24941); assay: CDK family kinase profiling, radioisotope-based assay (33P); type: biochemical; parameters: purchased Reaction Biology; conditions: read-out: 10-dose IC50
Description: as §2

[14] = target: CDK3/cyclinE (Homo sapiens, UniProt Q00526); assay: as above; type: biochemical; parameters: purchased Reaction Biology; conditions: read-out: 10-dose IC50
Sequence of CDK3/cyclinE (Q00526 whole entry): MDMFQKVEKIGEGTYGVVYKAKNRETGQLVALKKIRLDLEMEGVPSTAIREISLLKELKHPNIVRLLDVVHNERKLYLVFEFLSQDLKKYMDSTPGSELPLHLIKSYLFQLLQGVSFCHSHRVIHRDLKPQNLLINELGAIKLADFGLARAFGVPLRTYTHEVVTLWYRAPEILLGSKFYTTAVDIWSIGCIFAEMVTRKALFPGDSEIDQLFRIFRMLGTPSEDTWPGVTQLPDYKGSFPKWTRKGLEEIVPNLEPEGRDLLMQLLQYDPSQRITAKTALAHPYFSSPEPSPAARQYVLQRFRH
Sequence of CDK3/cyclinE (P24864 whole entry partner): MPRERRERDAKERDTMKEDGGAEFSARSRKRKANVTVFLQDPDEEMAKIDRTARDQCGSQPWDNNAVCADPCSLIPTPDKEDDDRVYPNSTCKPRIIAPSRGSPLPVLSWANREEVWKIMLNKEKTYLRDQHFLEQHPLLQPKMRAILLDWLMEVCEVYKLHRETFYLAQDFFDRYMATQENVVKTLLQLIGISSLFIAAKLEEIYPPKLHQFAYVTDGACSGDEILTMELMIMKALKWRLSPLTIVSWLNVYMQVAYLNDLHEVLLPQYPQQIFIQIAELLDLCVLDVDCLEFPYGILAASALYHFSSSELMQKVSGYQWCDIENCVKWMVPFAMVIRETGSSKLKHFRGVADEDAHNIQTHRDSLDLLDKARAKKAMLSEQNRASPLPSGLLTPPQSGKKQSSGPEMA
Description: as §2

[15] = test system: C4-2 human neuroendocrine prostate cancer xenograft; assay: In vivo tumor efficacy study 3, C4-2 xenograft

Q: How did the IC50 [1] turn out when CC(C)c1c2cc(-c3ccnc(N[C@H]4CC[C@H](N)C4)n3)ccc2nn1C [Compound I-2, (1S,3S)-[3-[4-(3-isopropyl-2-methylindazol-5-yl)pyrimidin-2-yl]aminocyclopentan-1-yl]-1,3-diamine] was run?
A: 5260 nM

Q: And the IC50 [2]?
A: 6700 nM

Q: And the IC50 ([3]; C4-2, 72 hours)?
A: 28.2 nM

Q: What about the IC50 ([3]; Homo sapiens, C4-2, 72 h) of the same molecule?
A: 28 nM

Q: What about the “CDK9 downstream targets (Western blot)” value [4] of the same molecule?
A: inhibited the CDK9 downstream targets

Q: And the “pCDK9, pSer2 and downstream N-MYC, C-MYC and MCL-1” value [5]?
A: reduced

Q: And the IC50 [6]?
A: 22.8 nM

Q: And the IC50 [7]?
A: 245 nM

Q: What about the IC50 [8] of the same molecule?
A: 119 nM

Q: And the IC50 [9]?
A: < 5 nM

Q: What about the Kd ([10]; PCTK1) of the same molecule?
A: 8.2 nM

Q: What about the remaining binding at 1 µM ([10]; PCTK1, 1 μM, read-out: % of control activity) of the same molecule?
A: 0 to 1%

Q: What about the tumor growth ([11]; 22Rv1, 30, 50, 65 mg/kg orally once daily, 21 days) of the same molecule?
A: inhibit tumor growth in a dose dependent manner

Q: What about the tolerability ([11]; 22Rv1 study, >50 mg/kg dosing levels) of the same molecule?
A: Tolerability issues

Q: And the “tumor growth inhibition throughout the course of the study” value ([12]; LASCPC-01, 50 mg/kg group)?
A: > 80%

Q: What about the “maximal tumor growth inhibition” value ([12]; LASCPC-01, 50 mg/kg group, early in the study) of the same molecule?
A: ~100%

Q: What about the maximal growth inhibition ([12]; LASCPC-01, 80 mg/kg group, day 5) of the same molecule?
A: 117%

Q: What about the tumor growth ([12]; LASCPC-01, 30, 50, 65, 80 mg/kg) of the same molecule?
A: inhibit tumor growth in a dose dependent manner

Q: What about the IC50 [13] of the same molecule?
A: 17.6 nM

Q: And the IC50 [14]?
A: 115 nM

Q: And the “decrease in tumor weight as compared to vehicle control group” value ([15]; C4-2, 50-30 mg/kg p.o., day 21)?
A: 48.72%

Q: And the “tumor volume as compared to vehicle control group” value ([15]; C4-2, 50-30 mg/kg p.o., days 18 to 21)?
A: significant decrease tumor volume

Q: And the “tumor growth inhibition from vehicle control group” value ([15]; C4-2, 50-30 mg/kg p.o., terminal day 21)?
A: 43.25%

Q: What about the “body weight as compared to vehicle control group” value ([15]; C4-2 study, 50-30 mg/kg p.o., starting at day 4) of the same molecule?
A: significant body weight loss

Q: And the “severe body weight loss” value ([15]; C4-2 study, mouse that died)?
A: ~15%
